Consider 14 compounds from patent US20090023630A1, “Methods and Means for Use in Diagnostics and Treatment of Diabetes” (priority 2005, published 2009).

Ends that are not written are not given here.

The target of the first assay is HLA-A*0201 (Homo sapiens, UniProt P04439, D140Y/D185E/D98H/E176V/E277Q/G131W/G231S/I119V/I121R/I166T/I218V/L300P/L318F/N151K/N90K/P208A/P217A/Q86G/Q94H/R138H/R169H/T345S). Nature of the assay: Peptide-HLA binding (competition with Fl-labeled HLA-A*0201 binding peptide).
Settings: not given
On the procedure: Peptide binding was assessed as described (21). […] HLA-bound and non-bound Fl-labeled peptides were separated by HPLC gel permeation chromatography with fluorescence detection. The concentration at which the test peptide reduced the amount of HLA-bound Fl-labeled peptide by 50% (IC50) was calculated using non-linear regression analysis. To select candidate HLA-A*0201 binding peptides from the insulin B chain, the molecule was screened for HLA-A*0201 binding motif containing peptides with a combination of two known binding prediction algorithms (18).
Usually IC50 stands for the concentration that gives 50% inhibition. Take ALYLVCGER [Peptide 14-22]: the IC50 is 90200 nM.

On to HLCGSHLVEA [Peptide 5-14], for which the IC50 was found to be 60 nM.

HLVEALYLVCG [Peptide 10-20]: the IC50 was determined as 190 nM.

With LVEALYLVC [Peptide 11-19], the IC50 worked out at 3600 nM.

As to SHLVEALYLV [Peptide 9-18], the IC50 was found to be 1370 nM.

The same assay, now with this note: peptide concentration needed to inhibit binding of FL-labeled reference peptide for 50%; read-out: IC50 (binding affinity for HLA-A*0201).
Regarding `CC(C)C[C@H](NC(=O)[C@H](C)N)C(=O)N[C@@H](Cc1ccc(O)cc1)C(=O)N[C@@H](CC(C)C)C(=O)N[C@H](C(=O)N[C@@H](CS)C(=O)NCC(=O)N[C@@H](CCC(=O)O)C(=O)N[C@@H](CCCNC(=N)N)C(=O)NCC(=O)O)C(C)C` [Peptide 14-23], the IC50 is above 100000 nM.

For the compound ALYLVCGERGF [Peptide 14-24], the IC50 worked out at 2260 nM.

For GSHLVEALYLV [Peptide 8-18], the IC50 came to 3730 nM.

In the case of HLCGSGLVEAL [Peptide 5-15, HLCGSGLVEAL], the IC50 was 440 nM.

On to HLVEALYLVC [Peptide 10-19], for which the IC50 amounted to 1750 nM.

For QHLCGSHLV [Peptide 4-12], the IC50 worked out at 9120 nM.

On to SHLVEALYL [Peptide 9-17], for which the IC50 worked out at 59500 nM.

YLVCGERGFF [Peptide 16-25]: the IC50 came out at 2300 nM.

For the compound YLVCGERGFFY [Peptide 16-26], the IC50 amounted to 8590 nM.
